Tests used:
[1] = Comparative bioavailability study, monomethyl fumarate plasma pharmacokinetics, single dose, fasting; format: in vivo, human; conditions: Treatment A over Treatment B normalized to 180 mg DMF
Procedure: This was a single center, pilot, comparative bioavailability, open-label, randomized, single-dose, 2-period, 2-sequence, crossover study under fasting conditions. A total of 12 healthy adult male or female volunteers were included in this pilot study. For each period, subjects will be confined from at least 10 hours before dosing until 12 hours post-dose. There were a washout of 7 days or more between doses. The washout period could be increased for logistical considerations. Participation of each subject in this study lasted approximately 9 days.
The delayed-release capsule were placed on the subject's tongue. Subjects were instructed to suck the delayed-release capsule until the acetylsalicylic acid coating was dissolved or up to a maximum of 1 minute after the delayed-release capsule had been placed on the subject's tongue. The delayed-release capsule should not be chewed, bitten, or swallowed during that 1 minute period or until the coating is dissolved; only the saliva could be swallowed. The subject was instructed to give a hand sign once the acetylsalicylic acid coating was dissolved (the capsule should feel and taste different). Thereafter, or up to a maximum of 1 minute after the delayed-release capsule was placed on the subject's tongue, 240 mL of water was given to subjects to swallow the capsule. Time of dosing was set to the time the capsule was placed on the tongue. […]

[2] = pretreatment with 325 mg aspirin for 4 days before DMF; cited from earlier work

**Q.** Which “Cmax Change % (A over B)” value [1] does the source give for `CC(=O)Oc1ccccc1C(=O)O` [aspirin, acetylsalicylic acid] here?
**A.** did not have significant impact

**Q.** And the “flushing incidence and intensity” value [2]?
**A.** reduced

**Q.** What about the gastrointestinal events [2] of the same molecule?
**A.** did not affect

**Q.** And the “pharmacokinetic profile of DMF” value [2]?
**A.** did not affect
